Source: patent publication US20230015823A1, “METHODS OF ADMINISTERING VOXELOTOR” (Global Blood Therapeutics, Inc., priority 2019, published 2023)
≈ marks a conversion by molar mass, not a printed value. Where two headings read alike, the source gives them in different places.

Columns and labels:
[1] = Clinical pharmacokinetics of voxelotor in plasma, whole blood and RBCs; type: in vivo, human; conditions: for AUC(0-t): read-out: AUC0-24h, Geometric Mean (% CV); for Cmax: read-out: Cmax, Geometric Mean (% CV)
Description: Voxelotor is absorbed into plasma and is then distributed predominantly into RBCs due to its preferential binding to Hb. The major route of elimination of voxelotor is by metabolism with subsequent excretion of metabolites into urine and feces. The PK are linear and voxelotor exposures increased proportionally with either single or multiple doses (Table 3) in whole blood, plasma, and RBCs. Steady-state after repeated administration is reached within 8 days and exposures of voxelotor are consistent with accumulation predicted based on single dose data in patients with SCD.
The median plasma and whole blood Tmax of voxelotor after oral administration is 2 hours. The mean peak concentrations in whole blood and RBCs are observed between 6 and 18 hours after oral administration.
Voxelotor apparent volume of distribution of the central compartment and peripheral compartment are 338 L and 72.2 L in plasma, respectively. Protein binding is 99.8% in vitro. The blood-to-plasma ratio is approximately 15:1 in patients with SCD.

[2] = PK in specific populations (age, sex, body weight, pediatric, renal impairment); type: in vivo, human
Protocol: The pharmacokinetic parameters of voxelotor were similar in pediatric patients 12 to <17 years and adults.
Following a single 900 mg dose of voxelotor, whole blood exposures in subjects with severe renal impairment (eGFR<30 mL/min/1.73 m^2) were 25% lower compared to healthy controls.
OXBRYTA has not been evaluated in patients with end stage renal disease requiring dialysis.

OAT3 = OAT3 (Homo sapiens, UniProt Q8TCC7); assay: In vitro transporter studies: OAT3; type: in vitro ADME
P-gp [3] = biological target: T1, P-gp (Homo sapiens, UniProt P08183); assay: In vitro transporter studies: P-gp; type: in vitro ADME
P-gp [4] = biological target: T1, P-gp; assay: Effect of voxelotor on P-gp: concomitant digoxin; type: in vivo; conditions: concomitant use
[5] = Drug substance properties (solubility, hygroscopicity); type: physicochemical; conditions: crystalline Form II free base
Description: Voxelotor, the active drug substance, is a white-to-yellow-to-beige compound in crystalline Form II of its free base. It is non-hygroscopic.

MATE1 = MATE1 (Homo sapiens, UniProt Q96FL8); assay: In vitro transporter studies: MATE1; type: in vitro ADME
CYP2C8 = CYP2C8 (Homo sapiens, UniProt P10632)
[6] = human, oral, 1500 mg, plasma, Voxelotor 1,500 mg
[7] = human, oral, 1500 mg, whole blood, Voxelotor 1,500 mg

T1 sequence (P08183 whole entry): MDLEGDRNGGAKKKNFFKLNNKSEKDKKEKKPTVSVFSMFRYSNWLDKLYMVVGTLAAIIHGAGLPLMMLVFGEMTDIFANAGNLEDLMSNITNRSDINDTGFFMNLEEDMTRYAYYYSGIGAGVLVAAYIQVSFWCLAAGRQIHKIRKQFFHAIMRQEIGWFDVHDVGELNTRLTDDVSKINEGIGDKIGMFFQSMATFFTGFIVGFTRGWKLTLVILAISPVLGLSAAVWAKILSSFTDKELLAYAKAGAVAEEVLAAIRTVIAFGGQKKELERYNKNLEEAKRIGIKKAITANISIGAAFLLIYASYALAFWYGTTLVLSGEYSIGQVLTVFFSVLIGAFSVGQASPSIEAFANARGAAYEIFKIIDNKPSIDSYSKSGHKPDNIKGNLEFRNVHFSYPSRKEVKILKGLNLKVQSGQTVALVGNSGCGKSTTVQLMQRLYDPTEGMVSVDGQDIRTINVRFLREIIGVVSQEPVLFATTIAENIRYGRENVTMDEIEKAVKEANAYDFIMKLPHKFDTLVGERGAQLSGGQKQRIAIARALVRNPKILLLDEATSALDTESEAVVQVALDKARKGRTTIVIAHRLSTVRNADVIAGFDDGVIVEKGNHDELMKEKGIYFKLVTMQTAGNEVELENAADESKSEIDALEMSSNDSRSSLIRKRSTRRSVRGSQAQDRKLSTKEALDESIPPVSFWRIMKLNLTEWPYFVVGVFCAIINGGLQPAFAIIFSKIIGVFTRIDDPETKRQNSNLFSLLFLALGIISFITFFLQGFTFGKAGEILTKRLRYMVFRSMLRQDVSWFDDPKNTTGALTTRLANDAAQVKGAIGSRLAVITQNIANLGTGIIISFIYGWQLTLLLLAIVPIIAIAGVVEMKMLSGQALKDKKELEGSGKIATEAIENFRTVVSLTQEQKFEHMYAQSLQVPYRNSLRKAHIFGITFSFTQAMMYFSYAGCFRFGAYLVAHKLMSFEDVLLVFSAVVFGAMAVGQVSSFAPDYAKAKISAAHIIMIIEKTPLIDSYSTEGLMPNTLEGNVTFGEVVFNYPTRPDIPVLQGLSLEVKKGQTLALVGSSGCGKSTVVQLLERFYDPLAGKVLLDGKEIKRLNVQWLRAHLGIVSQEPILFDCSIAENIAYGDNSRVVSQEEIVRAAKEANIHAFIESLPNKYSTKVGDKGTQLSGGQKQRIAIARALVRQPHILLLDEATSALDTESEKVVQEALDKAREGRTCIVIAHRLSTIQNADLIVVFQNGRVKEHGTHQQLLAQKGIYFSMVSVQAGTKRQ
Chain of MATE1 (Q96FL8 whole entry): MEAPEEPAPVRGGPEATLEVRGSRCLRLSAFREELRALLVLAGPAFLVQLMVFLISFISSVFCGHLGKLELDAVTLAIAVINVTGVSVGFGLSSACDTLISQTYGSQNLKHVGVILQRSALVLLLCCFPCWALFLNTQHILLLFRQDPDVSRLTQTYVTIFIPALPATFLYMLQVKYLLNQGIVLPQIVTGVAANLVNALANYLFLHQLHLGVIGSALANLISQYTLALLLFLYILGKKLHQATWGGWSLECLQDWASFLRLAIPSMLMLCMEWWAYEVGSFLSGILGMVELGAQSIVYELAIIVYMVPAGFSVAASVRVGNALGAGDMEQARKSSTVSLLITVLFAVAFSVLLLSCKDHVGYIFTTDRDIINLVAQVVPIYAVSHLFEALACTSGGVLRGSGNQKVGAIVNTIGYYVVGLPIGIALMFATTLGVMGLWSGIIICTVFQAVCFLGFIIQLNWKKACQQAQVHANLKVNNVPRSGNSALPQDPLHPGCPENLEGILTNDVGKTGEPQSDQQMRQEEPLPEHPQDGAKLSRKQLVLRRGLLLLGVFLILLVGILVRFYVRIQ
Chain of OAT3 (Q8TCC7 whole entry): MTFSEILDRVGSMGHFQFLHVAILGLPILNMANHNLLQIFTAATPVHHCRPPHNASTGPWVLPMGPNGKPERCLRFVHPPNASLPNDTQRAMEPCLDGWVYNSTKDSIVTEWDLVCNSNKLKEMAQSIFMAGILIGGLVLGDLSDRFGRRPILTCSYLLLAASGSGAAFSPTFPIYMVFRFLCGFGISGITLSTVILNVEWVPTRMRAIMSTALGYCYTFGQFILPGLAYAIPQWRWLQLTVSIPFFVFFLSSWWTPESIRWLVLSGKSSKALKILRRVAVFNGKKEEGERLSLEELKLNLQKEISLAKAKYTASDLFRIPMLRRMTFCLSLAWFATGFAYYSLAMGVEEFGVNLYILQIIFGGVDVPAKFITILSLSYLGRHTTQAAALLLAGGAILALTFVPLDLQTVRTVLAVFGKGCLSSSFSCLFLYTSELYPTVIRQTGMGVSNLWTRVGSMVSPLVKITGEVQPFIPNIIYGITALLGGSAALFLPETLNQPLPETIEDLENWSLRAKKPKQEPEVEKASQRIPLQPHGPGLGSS
Chain of CYP2C8 (P10632 whole entry): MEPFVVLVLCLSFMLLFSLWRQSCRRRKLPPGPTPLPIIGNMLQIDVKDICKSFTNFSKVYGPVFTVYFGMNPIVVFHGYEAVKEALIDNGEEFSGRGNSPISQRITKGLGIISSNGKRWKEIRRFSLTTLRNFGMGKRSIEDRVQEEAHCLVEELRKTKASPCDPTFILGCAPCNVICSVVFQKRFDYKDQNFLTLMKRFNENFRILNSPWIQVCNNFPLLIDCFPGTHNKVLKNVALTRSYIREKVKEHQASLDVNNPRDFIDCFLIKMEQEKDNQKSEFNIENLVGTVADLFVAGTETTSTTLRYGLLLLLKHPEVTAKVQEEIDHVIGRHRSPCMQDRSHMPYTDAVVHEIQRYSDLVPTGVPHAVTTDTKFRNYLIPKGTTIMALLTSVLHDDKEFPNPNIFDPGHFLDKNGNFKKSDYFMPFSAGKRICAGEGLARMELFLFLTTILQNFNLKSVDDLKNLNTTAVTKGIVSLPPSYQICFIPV

## CC(C)n1nccc1-c1ncccc1COc1cccc(O)c1C=O [voxelotor, 2-hydroxy-6-((2-(1-isopropyl-1H-pyrazol-5-yl)pyridin-3-yl)methoxy)benzaldehyde]
[1]; [6]
  AUC(0-t): 246 µg·h/mL
  Cmax: 12.6 µg/mL
[1]; [7]
  AUC(0-t): 3820 µg·h/mL
  Cmax: 179 µg/mL
[1]; human, plasma, oral, 1500 mg, patients with SCD, read-out: terminal elimination half-life, geometric mean (converted)
  half-life: 35.5 h
[1]; human, plasma, oral, read-out: apparent volume of distribution of the central compartment
  Vd: 338 L
[1]; human, plasma and whole blood, oral administration, read-out: median Tmax
  Tmax: 2 h
[1]; patients with SCD
  time to steady-state after repeated administration: ≤ 8 days
[1]; plasma
  apparent volume of distribution of the peripheral compartment: 72.2 L
[1]; plasma, Voxelotor 1,500 mg
  Half-life, Geometric Mean (% CV): 35.5 (25) hours
[1]; plasma, patients with SCD
  apparent oral clearance: 6.7 L/h
[1]; single or multiple doses, whole blood, plasma and RBCs
  PK linearity: linear
[2]; in vivo
  differences in pharmacokinetics based on age (12 to 59 years), sex, body weight (28 to 135 kg), or mild to severe renal impairment (CLcr 15-89 mL/min): No clinically significant differences
  effect of renal function on the excretion of voxelotor: no clinically significant effect
  pharmacokinetic parameters in pediatric patients 12 to <17 years vs adults: similar
[2]; severe renal impairment (eGFR<30 mL/min/1.73 m^2), single 900 mg dose
  whole blood exposures lower compared to healthy controls: 25%
[2]; severe renal impairment, single 900 mg dose
  unbound plasma concentrations vs healthy controls: comparable
OAT3
  inhibition of OAT3: not an inhibitor
P-gp [3]
  inhibition of P-gp: not an inhibitor
  substrate of P-gp: not a substrate
P-gp [4]
  effect on digoxin (a P-gp substrate): did not alter digoxin to a clinically relevant extent
[5]
  hygroscopicity: non-hygroscopic
  solubility in common organic solvents such as acetone and toluene: highly soluble
[5]; water
  solubility: ~30 µg/mL (≈ 88.9 µM)
MATE1
  inhibition of MATE1: not an inhibitor
CYP2C8
  inhibition of CYP2C8 in vivo: not
